Columns and labels:
Details in all cases: lowest tested rate giving 80% or greater inhibition, approx. 14 days after planting and treating, greenhouse
ABUTH = experiment: Pre-emergence herbicidal activity on ABUTH (velvetleaf); format: in vivo, Abutilon theophrasti
Outline: (§1)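 Seeds sown on sterilized fertilized topsoil and covered, then compound in organic solvent diluted with 50:50 acetone/water applied to soil surface; greenhouse at 30/21° C. day/night with 0.64 cm overhead irrigation. Percent inhibition versus untreated plants scored about 14 days after treatment; GR80 derived, highest rate typically 1000 g/ha.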

AMARE = experiment: Pre-emergence herbicidal activity on AMARE (redroot pigweed); format: in vivo, Amaranthus retroflexus
Outline: as §1

DATST = experiment: Pre-emergence herbicidal activity on DATST (jimsonweed); format: in vivo, Datura stramonium
Outline: as §1

CHEAL = experiment: Pre-emergence herbicidal activity on CHEAL (common lambsquarters); format: in vivo, Chenopodium album
Outline: as §1

CONAR = experiment: Pre-emergence herbicidal activity on CONAR (field bindweed); format: in vivo, Convolvulus arvensis
Outline: as §1

POROL = experiment: Pre-emergence herbicidal activity on POROL (common purslane); format: in vivo, Portulaca oleracea
Outline: as §1

CIRAR = experiment: Pre-emergence herbicidal activity on CIRAR (canada thistle, seedling); format: in vivo, Cirsium arvense
Outline: as §1

ECHCG = experiment: Pre-emergence herbicidal activity on ECHCG (barnyardgrass); format: in vivo, Echinochloa crus-galli
Text: (§2) All such uses, and the biological activity enabling such uses, are embraced by the term “herbicidal” herein. Tables 15 and 16 summarize results of tests conducted as described below to determine the pre-emergence herbicidal activity, in the form of a GR80 value, of illustrative compounds of this invention. […] Where herbicidal activity was evident but 80% inhibition was not achieved at the highest rate tested (typically 1000 g/ha), an asterisk (*) is shown in the following tables. Herbicidal activity evident in the form of symptoms of phytotoxicity, in the absence of at least 80% inhibition at any rate, is indicated in the tables by “phyto”. A blank cell in the following tables indicates no herbicidal or phytotoxic response at any rate tested.
(§3) The pre-emergence tests were conducted by the following procedure. Topsoil was sieved to pass through a 1.27 cm screen. Fertilizer was added to the topsoil and the mixture was then sterilized by heating. The topsoil mixture was placed in a pot and compacted to a depth of 1.0 to 1.25 cm from the top of the pot. Seeds of each of several monocotyledonous and dicotyledonous annual plant species were placed on top of the soil. Additional soil was subsequently placed over the seeds to level-fill the pot. A known amount of each test compound dissolved or suspended in an appropriate organic solvent was diluted with a 50:50 mix of acetone and water and applied to the surface of the soil. After treatment the plants were placed in a greenhouse with a 30/21° C. day/night temperature regime where they received 0.64 cm of overhead irrigation. All subsequent watering consisted of a light overhead mist and/or subirrigation as needed for germination and growth.
(§4) Approximately 14 days after planting and treating, the plants were observed and herbicidal efficacy recorded as percent inhibition by comparison with untreated plants.
(§5) The plant species usually regarded as weeds which were utilized in the tests are identified in the tables below according to the following legend, in which “d” indicates a dicotyledonous species and “m” a monocotyledonous species. All monocotyledonous species included in the tests herein are grasses.

PANMI = experiment: Pre-emergence herbicidal activity on PANMI (wild proso millet); format: in vivo, Panicum miliaceum
Outline: as §1

SORHA = experiment: Pre-emergence herbicidal activity on SORHA (johnsongrass, seedling); format: in vivo, Sorghum halepense
Outline: as §1

SETFA = experiment: Pre-emergence herbicidal activity on SETFA (giant foxtail); format: in vivo, Setaria faberi
Outline: as §1

PANDI = experiment: Pre-emergence herbicidal activity on PANDI (fall panicum); format: in vivo, Panicum dichotomiflorum
Outline: as §1

SORVU = experiment: Pre-emergence herbicidal activity on SORVU (shattercane); format: in vivo, Sorghum vulgare
Text: as §2, §3, §4, §5

BRAPP = experiment: Pre-emergence herbicidal activity on BRAPP (broadleaf signalgrass); format: in vivo, Brachiaria platyphylla
Outline: as §1

DIGSA = experiment: Pre-emergence herbicidal activity on DIGSA (large crabgrass); format: in vivo, Digitaria sanguinalis
Outline: as §1

SOLNI = experiment: Pre-emergence herbicidal activity on SOLNI (black nightshade); format: in vivo, Solanum nigrum
Outline: as §1

SMILES | Pre-emergence activity (GR80) on ABUTH (ABUTH) | Pre-emergence activity (GR80) on AMARE (AMARE) [g/ha] | Pre-emergence activity (GR80) on DATST (DATST) | Pre-emergence activity (GR80) on CHEAL (CHEAL) [g/ha] | Pre-emergence activity (GR80) on CONAR (CONAR) | Pre-emergence activity (GR80) on PORAL (POROL) | Pre-emergence activity (GR80) on CIRAR (CIRAR) | Pre-emergence activity (GR80) on ECHCG (ECHCG) | Pre-emergence activity (GR80) on PANMI (PANMI) | Pre-emergence activity (GR80) on SORHA (SORHA) | Pre-emergence activity (GR80) on SETFA (SETFA) | Pre-emergence activity (GR80) on PANDI (PANDI) | Pre-emergence activity (GR80) on SORVU (SORVU) | Pre-emergence activity (GR80) on BRAPP (BRAPP) | Pre-emergence activity (GR80) on DIGSA (DIGSA) | Pre-emergence activity (GR80) on SOLNI (SOLNI)
CC(CNC(=O)c1cccc(C(F)(F)F)c1)NC(=O)c1cccc(OC(F)(F)F)c1 (stereo not drawn) [Example 72] | 1000 g/ha | 125 | 1000 g/ha | 500 | * (Where herbicidal activity was evident but 80% inhibition was not achieved at the highest rate tested (typically 1000 g/ha), an asterisk (*) is shown) | 250 g/ha | 500 g/ha | phyto | phyto | * (Where herbicidal activity was evident but 80% inhibition was not achieved at the highest rate tested (typically 1000 g/ha), an asterisk (*) is shown) | 500 g/ha | 500 g/ha | phyto | 1000 g/ha | 250 g/ha | 
CC(CNC(=O)c1cccc(C(F)(F)F)c1)NC(=O)c1cccc(C(F)(F)F)c1Cl (stereo not drawn) [Example 14] | 250 g/ha | 125 | 64 g/ha | 64 | 125 g/ha | 125 g/ha | 64 g/ha | 1000 g/ha | 500 g/ha | 500 g/ha | 250 g/ha | 250 g/ha | phyto | 500 g/ha | 125 g/ha | 125 g/ha
COc1c(F)cccc1C(=O)NC(C)CNC(=O)c1cccc(C(F)(F)F)c1 (stereo not drawn) [Example 40] | phyto | 750 | 1000 g/ha | 750 | phyto | * (Where herbicidal activity was evident but 80% inhibition was not achieved at the highest rate tested (typically 1000 g/ha), an asterisk (*) is shown) |  | phyto | phyto | phyto | 1000 g/ha | 750 g/ha | phyto | * (Where herbicidal activity was evident but 80% inhibition was not achieved at the highest rate tested (typically 1000 g/ha), an asterisk (*) is shown) |  | phyto
Cc1cccc(C(=O)NC(C)CNC(=O)c2cccc(C(F)(F)F)c2)c1Br (stereo not drawn) [Example 66] | 250 g/ha | 250 | 500 g/ha | 125 | 250 g/ha | 500 g/ha | 500 g/ha | 750 g/ha | 750 g/ha | * (Where herbicidal activity was evident but 80% inhibition was not achieved at the highest rate tested (typically 1000 g/ha), an asterisk (*) is shown) | 500 g/ha | 500 g/ha |  | 1000 g/ha | 750 g/ha | 750 g/ha
CC(CNC(=O)c1cccc(C(F)(F)F)c1)NC(=O)c1cccc(SC(F)(F)F)c1 (stereo not drawn) [Example 73] | phyto | 250 | phyto | 750 | phyto | 750 g/ha | phyto | phyto | phyto | phyto | phyto | * (Where herbicidal activity was evident but 80% inhibition was not achieved at the highest rate tested (typically 1000 g/ha), an asterisk (*) is shown) |  | phyto | phyto | 1000 g/ha
Cc1cccc(C(=O)NC(C)CNC(=O)c2cccc(C(F)(F)F)c2)c1Cl (stereo not drawn) [Example 65] | 250 g/ha | 125 | 250 g/ha | 32 | 250 g/ha | 125 g/ha | 125 g/ha | 500 g/ha | 750 g/ha | * (Where herbicidal activity was evident but 80% inhibition was not achieved at the highest rate tested (typically 1000 g/ha), an asterisk (*) is shown) | 250 g/ha | 125 g/ha |  | 500 g/ha | 250 g/ha | 500 g/ha
Cc1ccccc1C(=O)NC(C)CNC(=O)c1cccc(C(F)(F)F)c1 (stereo not drawn) [Example 109] | phyto | 250 | 500 g/ha | 750 | phyto | 750 g/ha | 750 g/ha | phyto | 1000 g/ha | * (Where herbicidal activity was evident but 80% inhibition was not achieved at the highest rate tested (typically 1000 g/ha), an asterisk (*) is shown) | 750 g/ha | 750 g/ha |  | * (Where herbicidal activity was evident but 80% inhibition was not achieved at the highest rate tested (typically 1000 g/ha), an asterisk (*) is shown) | 250 g/ha | 750 g/ha
Cc1c(Br)cccc1C(=O)NC(C)CNC(=O)c1cccc(C(F)(F)F)c1 (stereo not drawn) [Example 57] | 750 g/ha | 64 | 125 g/ha | 32 | 250 g/ha | 125 g/ha | 500 g/ha | * (Where herbicidal activity was evident but 80% inhibition was not achieved at the highest rate tested (typically 1000 g/ha), an asterisk (*) is shown) | 750 g/ha | * (Where herbicidal activity was evident but 80% inhibition was not achieved at the highest rate tested (typically 1000 g/ha), an asterisk (*) is shown) | 250 g/ha | 125 g/ha |  | 750 g/ha | 500 g/ha | 250 g/ha
